Experimental data taken from ChEMBL document CHEMBL3085662, “Overman rearrangement and Pomeranz-Fritsch reaction for the synthesis of benzoazepinoisoquinolones to discover novel antitumor agents” (Eur J Med Chem, 2013).

Experiments:
[1] = Cytotoxicity against human U937 cells at 10 uM after 72 hrs by MTT assay; assay type: functional; settings: U-937, 72 h
HepG2 = assay: Cytotoxicity against human HepG2 cells at 10 uM after 72 hrs by MTT assay; assay type: functional; settings: HepG2, 72 h
HT-29 = assay: Cytotoxicity against human HT-29 cells at 10 uM after 72 hrs by MTT assay; assay type: functional; settings: HT-29, 72 h
HCT-116 [2] = assay: Cytotoxicity against human HCT116 cells at 10 uM after 72 hrs by MTT assay; assay type: functional; settings: HCT-116, 72 h
A-375 [3] = assay: Cytotoxicity against human A375 cells at 10 uM after 72 hrs by MTT assay; assay type: functional; settings: A-375, 72 h
HCT-116 [4] = assay: Cytotoxicity against human HCT116 cells after 72 hrs by MTT assay; assay type: functional, cell-based; settings: HCT-116, 72 h
A-375 [5] = assay: Cytotoxicity against human A375 cells after 72 hrs by MTT assay; assay type: functional, cell-based; settings: A-375, 72 h
[6] = Cytotoxicity against human LN18 cells at 10 uM after 72 hrs by MTT assay; assay type: functional; settings: LN-18, 72 h
cells = assay type: functional; settings: Homo sapiens, 786-0, 72 h
Description: Cytotoxicity against human 786-O cells at 10 uM after 72 hrs by MTT assay

NCI-N87 = assay: Cytotoxicity against human NCI-N87 cells at 10 uM after 72 hrs by MTT assay; assay type: functional; settings: NCI-N87, 72 h
PC-3 = assay: Cytotoxicity against human PC3 cells at 10 uM after 72 hrs by MTT assay; assay type: functional; settings: PC-3, 72 h
[7] = Cytotoxicity against human NCI-H1115 cells at 10 uM after 72 hrs by MTT assay; assay type: functional; settings: NCI-H1115, 72 h
NCI-H69 = assay: Cytotoxicity against human NCI-H69 cells at 10 uM after 72 hrs by MTT assay; assay type: functional; settings: NCI-H69, 72 h
K562 = assay: Cytotoxicity against human K562 cells at 10 uM after 72 hrs by MTT assay; assay type: functional; settings: K562, 72 h
MDA-MB-231 = assay: Cytotoxicity against human MDA-MB-231 cells at 10 uM after 72 hrs by MTT assay; assay type: functional; settings: MDA-MB-231, 72 h
[8] = Cytotoxicity against human Jurkat E6-1 cells at 10 uM after 72 hrs by MTT assay; assay type: functional

Compound | IC50 (HCT-116 [4]) [µM] | IC50 (A-375 [5]) [µM] | also measured
COc1ccc2cc3n(c(=O)c2c1OC)CC=Cc1cc2c(cc1-3)OCO2 | 4.87 | 0.59 | inhibition at 10 µM [1]: 66.9%; inhibition at 10 µM (HepG2): 54.6%; inhibition at 10 µM (HT-29): 50.3%; inhibition at 10 µM (HCT-116 [2]): 59.1%; inhibition at 10 µM (A-375 [3]): 86.5%; inhibition at 10 µM [6]: 56.4%; inhibition at 10 µM (cells): 61.9%; inhibition at 10 µM (NCI-N87): 46%; inhibition at 10 µM (PC-3): 58.4%; inhibition at 10 µM [7]: 77.7%; inhibition at 10 µM (NCI-H69): 56.8%; inhibition at 10 µM (K562): 51%; inhibition at 10 µM (MDA-MB-231): 39.1%; inhibition at 10 µM [8]: 73%
C=CCn1c(-c2cc3c(cc2C=C)OCO3)cc2ccc(OC)c(OC)c2c1=O | 0.65 | 0.17 | 
COc1cc2c(cc1OC)-c1cc3ccc(OC)c(OC)c3c(=O)n1CC=C2 | 8.84 | 2.1 | 
COc1ccc2cc(-c3ccc4c(c3)OCO4)[nH]c(=O)c2c1OC | > 10 | 7.99 | 
COc1ccc(-c2cc3ccc(OC)c(OC)c3c(=O)[nH]2)cc1OC | > 10 | > 10 | 
C=Cc1cc2c(cc1-c1cc3ccc(OC)c(OC)c3c(=O)[nH]1)OCO2 | 1.54 | 0.43 | 
C=CCn1c(-c2ccc3c(c2)OCO3)cc2ccc(OC)c(OC)c2c1=O | 0.86 | 0.2 | 
C=CCn1c(-c2ccc(OC)c(OC)c2)cc2ccc(OC)c(OC)c2c1=O | > 10 | 0.5 | 
C=CCOc1nc(-c2ccc3c(c2)OCO3)cc2ccc(OC)c(OC)c12 | > 10 | > 10 | 
C=CCOc1nc(-c2ccc(OC)c(OC)c2)cc2ccc(OC)c(OC)c12 | > 10 | > 10 | 
COc1ccc2cc(-c3ccc4c(c3)OCO4)n(CCC=O)c(=O)c2c1OC | 4.69 | 2.93 | 
COc1ccc(-c2cc3ccc(OC)c(OC)c3c(=O)n2CCC=O)cc1OC | > 10 | 5.82 | 
CO/C=C/Cn1c(-c2ccc3c(c2)OCO3)cc2ccc(OC)c(OC)c2c1=O | 0.42 | 0.11 | 
COc1ccc2cc(-c3ccc4c(c3)OCO4)n(CC=O)c(=O)c2c1OC | 9.23 | 3.77 | 
COc1ccc2cc3n(c(=O)c2c1OC)CC(O)C(O)c1cc2c(cc1-3)OCO2 (centres undefined) | 22.2 | 9 | inhibition at 10 µM [1]: 23.5%; inhibition at 10 µM (HepG2): 20.9%; inhibition at 10 µM (HT-29): 7.56%; inhibition at 10 µM (HCT-116 [2]): 32.8%; inhibition at 10 µM (A-375 [3]): 51.1%; inhibition at 10 µM [6]: 36.5%; inhibition at 10 µM (cells): 11%; inhibition at 10 µM (NCI-N87): 18.3%; inhibition at 10 µM (PC-3): 33.9%; inhibition at 10 µM [7]: 25.8%; inhibition at 10 µM (NCI-H69): 19.8%; inhibition at 10 µM (K562): 15.6%; inhibition at 10 µM (MDA-MB-231): 9.29%; inhibition at 10 µM [8]: 14.8%
COc1ccc2cc(-c3ccc4c(c3)OCO4)n(CC(O)CO)c(=O)c2c1OC (racemic) | > 10 | > 10 | 
CNC(=O)c1cc(Oc2ccc(NC(=O)Nc3ccc(Cl)c(C(F)(F)F)c3)cc2)ccn1 [SORAFENIB] | 5.65 | 7.56 | 
CCCS(=O)(=O)Nc1ccc(F)c(C(=O)c2c[nH]c3ncc(-c4ccc(Cl)cc4)cc23)c1F [VEMURAFENIB] | > 30 | 0.18 | 
